Columns and labels:
[1] = Stability in simulated gastric fluid (SGF)
plasma protein = experiment: Protein binding in human plasma; conditions: plasma protein-bound fraction, mean with standard error
[2] = mean with standard error
HDAC5 = biological target: T1, HDAC5 (Homo sapiens, UniProt Q9UQL6); experiment: Fluorescence-based HDAC inhibition assay, HDAC5; assay type: biochemical; conditions: for IC50: 10 μM Boc-Lys(TFA)-AMC substrate, mean of two experiments ± SEM
T1 construct: made in house; host or cells: HEK293/T17 cells, transient transfection
T1 sequence (Q9UQL6 whole entry): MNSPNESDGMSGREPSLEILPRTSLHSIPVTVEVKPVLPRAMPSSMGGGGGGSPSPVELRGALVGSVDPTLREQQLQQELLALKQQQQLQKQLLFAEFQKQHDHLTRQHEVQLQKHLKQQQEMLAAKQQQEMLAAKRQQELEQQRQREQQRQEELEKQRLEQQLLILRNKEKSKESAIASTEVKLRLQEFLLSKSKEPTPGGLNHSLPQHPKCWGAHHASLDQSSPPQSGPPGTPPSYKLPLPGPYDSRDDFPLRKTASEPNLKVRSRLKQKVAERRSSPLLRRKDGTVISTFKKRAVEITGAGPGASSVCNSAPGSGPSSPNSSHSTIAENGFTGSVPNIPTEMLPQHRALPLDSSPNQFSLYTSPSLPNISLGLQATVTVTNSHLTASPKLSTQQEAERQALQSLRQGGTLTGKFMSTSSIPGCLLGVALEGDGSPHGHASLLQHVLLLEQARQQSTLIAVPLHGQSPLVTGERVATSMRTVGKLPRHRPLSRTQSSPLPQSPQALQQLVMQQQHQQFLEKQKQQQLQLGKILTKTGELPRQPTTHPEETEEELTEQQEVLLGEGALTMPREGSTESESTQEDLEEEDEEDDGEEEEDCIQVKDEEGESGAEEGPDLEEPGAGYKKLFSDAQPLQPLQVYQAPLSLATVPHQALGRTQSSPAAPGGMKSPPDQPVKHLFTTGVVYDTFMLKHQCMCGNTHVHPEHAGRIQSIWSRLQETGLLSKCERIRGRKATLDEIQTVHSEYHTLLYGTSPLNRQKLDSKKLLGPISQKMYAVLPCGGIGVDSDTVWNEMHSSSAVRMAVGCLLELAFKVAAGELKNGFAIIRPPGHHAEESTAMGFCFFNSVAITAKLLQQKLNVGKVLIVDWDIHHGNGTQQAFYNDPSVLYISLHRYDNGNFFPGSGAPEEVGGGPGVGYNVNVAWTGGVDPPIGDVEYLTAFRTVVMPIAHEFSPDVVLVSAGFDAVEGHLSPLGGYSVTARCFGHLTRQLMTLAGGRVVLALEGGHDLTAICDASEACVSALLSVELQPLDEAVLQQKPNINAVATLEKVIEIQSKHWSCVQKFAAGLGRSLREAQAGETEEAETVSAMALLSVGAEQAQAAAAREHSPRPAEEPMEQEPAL
Method: (§1) Briefly, transiently transfected cells were harvested three days post-transfection and the cell pellets resuspended in a lysis buffer (50 mM Tris, 150 mM NaCl, 10 mM KCl, 2 mM MgCl2, 10% glycerol, 0.2% NP-40, 2 Units/mL benzonase, pH 8) supplemented with a cocktail of protease inhibitors (Roche, Basel, Switzerland). Cells were lysed by sonication (30 W; 3×20 s) on ice, and the cell lysate cleared by centrifugation at 40 000×g for 30 min at 4° C. […] Purified proteins were concentrated to 1 mg/mL, aliquoted, flash-frozen in liquid nitrogen, and stored at −80° C. until further use.
(§2) Briefly, individual HDACs were preincubated with dilution series of tested inhibitors (0-100 μM) in a 384-well plate in the total volume of 40 μL for 10 min at 37° C. in a reaction buffer comprising 50 mM HEPES, 140 mM NaCl, 10 mM KCl, 1 mM TCEP, 0.1% BSA, pH 7.4. Deacetylation reaction was started by the addition of 10 μL of a 10 μM substrate into the HDAC/inhibitor mixture. Following the 30 min incubation at 37° C., the reaction was terminated by the addition of 25 μL of the trypsin solution (4 mg/mL). Fluorescence development by trypsin was carried out at 37° C. for 15 and 60 min for Ac-GAK(Ac)-AMC and Boc-Lys(TFA)-AMC substrate, respectively. […] Non-linear regression analysis was employed to calculate IC50 values using the GraphPad Prism software. […] Reactions without the enzyme or the inhibitor were used to define 0% and 100% of the HDAC activity, respectively.

HDAC1 = biological target: T2, HDAC1 (Homo sapiens, UniProt Q13547); experiment: Fluorescence-based HDAC inhibition assay, HDAC1; assay type: biochemical
T2 construct: made in house; host or cells: HEK293/T17 cells, transient transfection
T2 sequence (Q13547 whole entry): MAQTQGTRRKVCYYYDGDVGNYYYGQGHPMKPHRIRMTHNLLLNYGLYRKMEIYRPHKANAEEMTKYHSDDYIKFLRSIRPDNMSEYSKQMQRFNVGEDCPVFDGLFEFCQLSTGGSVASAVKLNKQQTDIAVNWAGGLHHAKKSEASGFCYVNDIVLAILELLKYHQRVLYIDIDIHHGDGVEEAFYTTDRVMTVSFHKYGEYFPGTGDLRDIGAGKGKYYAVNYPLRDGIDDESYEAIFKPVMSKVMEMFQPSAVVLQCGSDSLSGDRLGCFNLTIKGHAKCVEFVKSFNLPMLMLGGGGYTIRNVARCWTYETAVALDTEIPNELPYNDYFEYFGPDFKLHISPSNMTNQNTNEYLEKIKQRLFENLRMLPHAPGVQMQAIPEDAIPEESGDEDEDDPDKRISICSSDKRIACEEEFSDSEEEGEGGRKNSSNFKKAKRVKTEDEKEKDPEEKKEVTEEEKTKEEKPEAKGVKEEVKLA
Method: as §1, §2

HDAC2 = biological target: T3, HDAC2 (Homo sapiens, UniProt Q92769); experiment: Fluorescence-based HDAC inhibition assay, HDAC2; assay type: biochemical; conditions: for IC50: 10 μM Ac-GAK(Ac)-AMC substrate, mean of two experiments ± SEM
T3 construct: made in house; host or cells: HEK293/T17 cells, transient transfection
T3 sequence (Q92769 whole entry): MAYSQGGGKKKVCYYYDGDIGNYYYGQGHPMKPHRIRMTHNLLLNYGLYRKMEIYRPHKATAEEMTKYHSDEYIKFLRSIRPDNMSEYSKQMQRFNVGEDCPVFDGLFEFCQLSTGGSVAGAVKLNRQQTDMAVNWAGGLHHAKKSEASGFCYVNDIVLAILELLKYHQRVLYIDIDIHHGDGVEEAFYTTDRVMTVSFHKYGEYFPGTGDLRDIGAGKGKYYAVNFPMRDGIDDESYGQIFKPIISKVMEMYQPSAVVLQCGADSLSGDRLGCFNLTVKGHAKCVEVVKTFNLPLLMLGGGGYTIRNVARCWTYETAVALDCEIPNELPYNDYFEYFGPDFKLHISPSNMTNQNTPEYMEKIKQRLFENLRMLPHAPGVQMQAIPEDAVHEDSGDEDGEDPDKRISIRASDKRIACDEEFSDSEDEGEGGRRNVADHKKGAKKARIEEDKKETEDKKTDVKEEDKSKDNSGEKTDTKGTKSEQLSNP
Method: as §1, §2

HDAC8 = biological target: T4, HDAC8 (Homo sapiens, UniProt Q9BY41); experiment: Fluorescence-based HDAC inhibition assay, HDAC8; assay type: biochemical; conditions: for IC50: 10 μM Boc-Lys(TFA)-AMC substrate, mean of two experiments ± SEM
T4 construct: made in house; host or cells: HEK293/T17 cells, transient transfection
T4 sequence (Q9BY41 1-377): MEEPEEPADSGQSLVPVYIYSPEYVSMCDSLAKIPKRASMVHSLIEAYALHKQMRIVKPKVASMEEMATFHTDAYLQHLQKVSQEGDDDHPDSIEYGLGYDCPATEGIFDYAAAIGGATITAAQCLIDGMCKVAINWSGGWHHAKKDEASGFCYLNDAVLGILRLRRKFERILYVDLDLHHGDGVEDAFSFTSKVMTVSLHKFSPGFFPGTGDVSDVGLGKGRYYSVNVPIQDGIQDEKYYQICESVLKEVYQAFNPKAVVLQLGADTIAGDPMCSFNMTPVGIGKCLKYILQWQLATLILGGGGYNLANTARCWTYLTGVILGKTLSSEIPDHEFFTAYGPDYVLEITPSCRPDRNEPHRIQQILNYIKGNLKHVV
Method: as §1, §2

HDAC7 = biological target: T5, HDAC7 (Homo sapiens, UniProt Q8WUI4); experiment: Fluorescence-based HDAC inhibition assay, HDAC7; assay type: biochemical; conditions: for IC50: 10 μM Boc-Lys(TFA)-AMC substrate, mean of two experiments ± SEM
T5 construct: made in house; host or cells: HEK293/T17 cells, transient transfection
T5 sequence (Q8WUI4 1-952): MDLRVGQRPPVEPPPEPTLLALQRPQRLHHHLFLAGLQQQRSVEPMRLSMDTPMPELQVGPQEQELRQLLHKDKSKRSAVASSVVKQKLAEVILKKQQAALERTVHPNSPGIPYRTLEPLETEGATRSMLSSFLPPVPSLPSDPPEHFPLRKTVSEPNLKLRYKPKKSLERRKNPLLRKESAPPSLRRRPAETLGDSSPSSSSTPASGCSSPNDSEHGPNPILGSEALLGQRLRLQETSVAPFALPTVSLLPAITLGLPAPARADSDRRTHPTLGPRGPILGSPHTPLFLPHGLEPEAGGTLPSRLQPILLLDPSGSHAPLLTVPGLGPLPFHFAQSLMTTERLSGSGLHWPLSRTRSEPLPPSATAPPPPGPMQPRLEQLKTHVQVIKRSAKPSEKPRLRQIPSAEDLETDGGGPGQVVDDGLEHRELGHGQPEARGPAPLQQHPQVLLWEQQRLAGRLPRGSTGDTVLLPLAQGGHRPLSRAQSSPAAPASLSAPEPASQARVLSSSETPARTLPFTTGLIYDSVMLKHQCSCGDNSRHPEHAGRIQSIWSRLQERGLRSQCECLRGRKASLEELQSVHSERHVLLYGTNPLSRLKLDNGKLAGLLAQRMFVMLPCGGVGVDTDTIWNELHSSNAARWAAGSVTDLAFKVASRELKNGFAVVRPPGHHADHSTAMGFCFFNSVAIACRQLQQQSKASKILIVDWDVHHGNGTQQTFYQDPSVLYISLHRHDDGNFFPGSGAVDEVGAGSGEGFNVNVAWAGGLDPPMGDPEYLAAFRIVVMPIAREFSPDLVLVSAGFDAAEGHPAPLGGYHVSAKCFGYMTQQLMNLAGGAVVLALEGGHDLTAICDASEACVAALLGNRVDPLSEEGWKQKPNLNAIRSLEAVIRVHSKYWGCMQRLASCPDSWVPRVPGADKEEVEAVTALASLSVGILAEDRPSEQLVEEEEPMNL
Method: as §1, §2

HDAC3 = biological target: T6, HDAC3 (Homo sapiens, UniProt O15379); experiment: Fluorescence-based HDAC inhibition assay, HDAC3; assay type: biochemical; conditions: for IC50: 10 μM Ac-GAK(Ac)-AMC substrate, mean of two experiments ± SEM
T6 construct: made in house; host or cells: HEK293/T17 cells, transient transfection
T6 sequence (O15379 whole entry): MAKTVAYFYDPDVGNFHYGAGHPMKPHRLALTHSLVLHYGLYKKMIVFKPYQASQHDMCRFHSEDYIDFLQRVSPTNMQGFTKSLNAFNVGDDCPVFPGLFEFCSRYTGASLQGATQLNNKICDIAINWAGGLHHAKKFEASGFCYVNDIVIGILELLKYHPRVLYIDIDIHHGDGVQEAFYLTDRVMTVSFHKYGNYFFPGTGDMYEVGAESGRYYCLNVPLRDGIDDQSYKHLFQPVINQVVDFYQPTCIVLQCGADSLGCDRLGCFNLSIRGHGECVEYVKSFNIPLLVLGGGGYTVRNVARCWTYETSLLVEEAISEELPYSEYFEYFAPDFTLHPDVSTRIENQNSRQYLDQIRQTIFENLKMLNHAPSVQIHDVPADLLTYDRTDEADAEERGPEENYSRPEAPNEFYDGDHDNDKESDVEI
T6 sequence (Q9Y618 389-480 partner limits assumed): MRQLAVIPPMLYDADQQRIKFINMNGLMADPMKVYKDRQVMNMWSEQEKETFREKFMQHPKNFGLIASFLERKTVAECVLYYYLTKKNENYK
Method: as §1, §2

[3] = 10 μM Ac-GAK(Ac)-AMC substrate, mean of two experiments ± SEM

NCc1ccc(NC(=O)N(CCCCO)Cc2ccc(C(=O)NO)cc2)cc1 [Compound 6a, 4-((3-(4-(Aminomethyl)phenyl)-1-(4-hydroxybutyl)ureido)methyl)-N-hydroxybenz-amide]
SGF stability (t1/2, h) [1]: >5 h | Human plasma binding (%) (plasma protein): 1.9% | Human plasma binding (%) (plasma protein; listed as Suprastat): 1.9% | Rat liver microsomes (t1/2, min) [2]: 177 min | SI (HDAC6 selectivity index over HDAC5) (HDAC5): 8,550 | IC50 (HDAC5): 3420 nM | Human plasma stability (t1/2, h) (Human plasma stability): >5 h | SI (HDAC6 selectivity index over HDAC1) (HDAC1): 293 | IC50 (HDAC1; [3]): 117 ± 10 nM | IC50 (HDAC1; Table 2): 117 ± 10 nM | HDAC1/6 (HDAC1; ratio HDAC1 IC50 / HDAC6 IC50, Table 2): 293 | SI (HDAC6 selectivity index over HDAC2) (HDAC2): 440 | IC50 (HDAC2): 176 ± 21 nM | SI (HDAC6 selectivity index over HDAC8) (HDAC8): 1,250 | IC50 (HDAC8): 498 ± 58 nM | SI (HDAC6 selectivity index over HDAC7) (HDAC7): 3,680 | IC50 (HDAC7): 1470 nM | SI (HDAC6 selectivity index over HDAC3) (HDAC3): 880 | IC50 (HDAC3): 352 ± 2 nM

O=C(NO)c1ccc(CN(CCCCO)C(=O)Nc2ccccc2)cc1 [Compound 6c, reference compound]
SGF stability (t1/2, h) [1]: >5 h | Human plasma binding (%) (plasma protein): approximately 50% | Rat liver microsomes (t1/2, min) [2]: 198 min | IC50 (HDAC5): 9130 nM | Human plasma stability (t1/2, h) (Human plasma stability): >5 h | SI (HDAC6 selectivity index over HDAC1) (HDAC1): 296 | IC50 (HDAC1; [3]): 148 ± 9 nM | SI (HDAC6 selectivity index over HDAC2) (HDAC2): 536 | IC50 (HDAC2): 268 ± 16 nM | SI (HDAC6 selectivity index over HDAC8) (HDAC8): 956 | IC50 (HDAC8): 478 ± 97 nM | IC50 (HDAC7): 1930 nM | IC50 (HDAC3): 581 ± 18 nM

CCCCN(Cc1ccc(C(=O)NO)cc1)C(=O)Nc1ccc(CN)cc1 [Compound 6b, 4-((3-(4-(Aminomethyl)phenyl)-1-butylureido)methyl)-N-hydroxybenzamide]
SGF stability (t1/2, h) [1]: >5 h | Human plasma binding (%) (plasma protein): approximately 50% | Rat liver microsomes (t1/2, min) [2]: 173 min | SI (HDAC6 selectivity index over HDAC5) (HDAC5): 11,200 | IC50 (HDAC5): 10100 nM | Human plasma stability (t1/2, h) (Human plasma stability): >5 h | SI (HDAC6 selectivity index over HDAC1) (HDAC1): 89 | IC50 (HDAC1; [3]): 80 ± 45 nM | SI (HDAC6 selectivity index over HDAC2) (HDAC2): 312 | IC50 (HDAC2): 281 ± 28 nM | SI (HDAC6 selectivity index over HDAC8) (HDAC8): 682 | IC50 (HDAC8): 614 ± 58 nM | SI (HDAC6 selectivity index over HDAC7) (HDAC7): 10,000 | IC50 (HDAC7): 9000 nM | SI (HDAC6 selectivity index over HDAC3) (HDAC3): 492 | IC50 (HDAC3): 443 ± 108 nM

Reference: patent publication US20230250054A1, “SELECTIVE HISTONE DEACETYLASE 6 INHIBITORS” (The Board of Trustees of the University of Illinois, priority 2020, published 2023)
